Data reported in patent publication US20100184094A1, “USE OF MDCK CELLS IN THE EVALUATION OF CHOLESTEROL MODULATORS” (priority 2007, published 2010).

What was measured:
[1] = target: dog NPC1L1 endogenously expressed in MDCKII cells (Canis lupus familiaris, UniProt A0A8I3RZG1); assay: [3H]AS binding to MDCKII cells (saturation, kinetics, competition, acid wash); details: for IC50: 5.49 nM [3H]AS, 4 h, 37° C., read-out: IC50 inhibition of [3H]AS binding; for Ki: MDCKII cells
Procedure: (§1) rNPC1L1/HEK293 and TsA201 cells were seeded at a density of 10,000 cells per well in 96-well poly-D-lysine coated plates and cells were allowed to attach for approximately 18 h at 37° C. TsA201 cells were subsequently transfected with dog NPC1L1/pcDNA5/FRT according to the manufacturer's instructions (Roche) and incubated for 3 days at 37° C. MDCKII-derived, LLC-PKI, HepG2, or CaCo-2 cells were seeded at a density of 25,000 cells per well in 96-well tissue culture treated plates, and cells were allowed to attach and differentiate for approximately 72 h at 37° C., except for CaCo-2 cells where differentiation took approximately 14 days at 37° C. […] Duplicate samples were averaged for each experimental point. […] Dissociation kinetics were determined by addition of 100 μM EZE-gluc, and incubating for different periods of time. Nonspecific binding was defined in the presence of 100 μM EZE-gluc. At the end of the incubation period, cells were washed twice with 200 μl of pre-warmed DMEM to separate bound from free ligand, 1% SDS was added to the wells followed by 5 ml of Scintillant, and radioactivity associated with cells was determined using a β-counter. […] Thereafter, plates were placed on ice and cells were washed twice with ice-cold PBS, followed by ice-cold acid wash with DMEM, pH 3.5, for 1, 5 or 15 minutes. […] For Transwell experiments, MDCKII cells were seeded at 200,000 cells/well in a 24-well plate and incubated for 3 days at 37° C. […] Thereafter, both apical and basolateral compartments were washed three times with PBS, and the Transwell filter was cut out and its associated radioactivity determined using afi-counter. Data from saturation, competition and ligand dissociation experiments were analyzed as described in the literature; see, Priest, et al., 2004 Biochemistry 43:9866-9876; Knaus et al., 1995 Biochemistry 34:13627-13634. The association rate, k1, was determined by employing the pseudo-first-order rate equation k1=kobs([LR]e/[L][LR]max)) where [LR]max is the concentration of the complex at equilibrium, [L] is the concentration of ligand, [LR]max is the total receptor concentration, kobs is the slope of the pseudo-first order plot, ln([LR]e/([LR]e−[LR]t)) versus time, and [LR]t is the receptor-ligand complex at one given time point t.

[2] = target: T1, human NPC1L1 (Homo sapiens, UniProt Q9UHC9); assay: [3H]AS binding to hNPC1L1/MDCKII-Flp cells; details: FIG. 7D, read-out: Ki inhibition of [3H]AS binding
T1 construct: expressed in transfected cells
T1 sequence (Q9UHC9 22-1359): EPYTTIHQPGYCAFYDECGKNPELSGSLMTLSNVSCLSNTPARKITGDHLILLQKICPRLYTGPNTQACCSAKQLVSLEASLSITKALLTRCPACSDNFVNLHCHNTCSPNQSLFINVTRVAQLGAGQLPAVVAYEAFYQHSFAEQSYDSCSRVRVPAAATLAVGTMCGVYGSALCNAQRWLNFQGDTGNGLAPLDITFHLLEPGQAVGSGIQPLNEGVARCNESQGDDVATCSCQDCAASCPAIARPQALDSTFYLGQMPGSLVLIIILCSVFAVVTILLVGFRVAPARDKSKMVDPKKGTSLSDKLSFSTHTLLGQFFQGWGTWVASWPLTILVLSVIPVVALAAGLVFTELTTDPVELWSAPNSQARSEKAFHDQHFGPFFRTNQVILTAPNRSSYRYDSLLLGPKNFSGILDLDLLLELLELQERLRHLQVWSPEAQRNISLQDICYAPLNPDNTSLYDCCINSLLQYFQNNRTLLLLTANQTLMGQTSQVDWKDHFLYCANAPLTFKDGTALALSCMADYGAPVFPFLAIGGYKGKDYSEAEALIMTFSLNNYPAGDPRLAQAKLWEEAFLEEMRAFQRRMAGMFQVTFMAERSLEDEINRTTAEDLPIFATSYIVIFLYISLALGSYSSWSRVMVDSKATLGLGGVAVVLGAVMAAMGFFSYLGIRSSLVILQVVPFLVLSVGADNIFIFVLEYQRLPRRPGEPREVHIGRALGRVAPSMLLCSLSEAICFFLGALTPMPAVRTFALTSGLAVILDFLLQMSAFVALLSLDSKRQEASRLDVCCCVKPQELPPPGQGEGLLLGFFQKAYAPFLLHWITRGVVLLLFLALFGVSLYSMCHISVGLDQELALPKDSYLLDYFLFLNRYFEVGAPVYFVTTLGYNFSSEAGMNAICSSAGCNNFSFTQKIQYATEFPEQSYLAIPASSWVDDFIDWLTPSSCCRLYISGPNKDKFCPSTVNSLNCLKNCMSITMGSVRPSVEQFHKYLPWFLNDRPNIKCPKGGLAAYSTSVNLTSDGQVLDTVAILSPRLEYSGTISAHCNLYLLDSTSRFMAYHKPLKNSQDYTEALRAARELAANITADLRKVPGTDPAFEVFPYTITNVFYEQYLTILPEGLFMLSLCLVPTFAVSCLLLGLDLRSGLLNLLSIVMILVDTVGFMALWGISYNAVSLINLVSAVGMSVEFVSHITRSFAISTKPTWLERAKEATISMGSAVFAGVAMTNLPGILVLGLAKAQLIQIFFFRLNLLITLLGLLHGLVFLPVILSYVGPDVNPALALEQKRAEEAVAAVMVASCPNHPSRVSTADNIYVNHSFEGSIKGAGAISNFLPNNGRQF
Procedure: as §1
To validate MDCKII cells as an appropriate surrogate system for monitoring NPC1L1-dependent processes, we evaluated their ability to perform EZE-sensitive cholesterol flux using a similar protocol to that recently reported. This assay makes use of the ability of βmCD to deplete membrane-bound cholesterol. […]
To further characterize the [^3H] cholesterol influx process into MDCK cells, the potency of EZE-like compound PS for inhibiting [^3H] cholesterol uptake was determined.

dog NPC1L1 endogenously expressed in MDCKII cells, sequence (A0A8I3RZG1 entry or part of it): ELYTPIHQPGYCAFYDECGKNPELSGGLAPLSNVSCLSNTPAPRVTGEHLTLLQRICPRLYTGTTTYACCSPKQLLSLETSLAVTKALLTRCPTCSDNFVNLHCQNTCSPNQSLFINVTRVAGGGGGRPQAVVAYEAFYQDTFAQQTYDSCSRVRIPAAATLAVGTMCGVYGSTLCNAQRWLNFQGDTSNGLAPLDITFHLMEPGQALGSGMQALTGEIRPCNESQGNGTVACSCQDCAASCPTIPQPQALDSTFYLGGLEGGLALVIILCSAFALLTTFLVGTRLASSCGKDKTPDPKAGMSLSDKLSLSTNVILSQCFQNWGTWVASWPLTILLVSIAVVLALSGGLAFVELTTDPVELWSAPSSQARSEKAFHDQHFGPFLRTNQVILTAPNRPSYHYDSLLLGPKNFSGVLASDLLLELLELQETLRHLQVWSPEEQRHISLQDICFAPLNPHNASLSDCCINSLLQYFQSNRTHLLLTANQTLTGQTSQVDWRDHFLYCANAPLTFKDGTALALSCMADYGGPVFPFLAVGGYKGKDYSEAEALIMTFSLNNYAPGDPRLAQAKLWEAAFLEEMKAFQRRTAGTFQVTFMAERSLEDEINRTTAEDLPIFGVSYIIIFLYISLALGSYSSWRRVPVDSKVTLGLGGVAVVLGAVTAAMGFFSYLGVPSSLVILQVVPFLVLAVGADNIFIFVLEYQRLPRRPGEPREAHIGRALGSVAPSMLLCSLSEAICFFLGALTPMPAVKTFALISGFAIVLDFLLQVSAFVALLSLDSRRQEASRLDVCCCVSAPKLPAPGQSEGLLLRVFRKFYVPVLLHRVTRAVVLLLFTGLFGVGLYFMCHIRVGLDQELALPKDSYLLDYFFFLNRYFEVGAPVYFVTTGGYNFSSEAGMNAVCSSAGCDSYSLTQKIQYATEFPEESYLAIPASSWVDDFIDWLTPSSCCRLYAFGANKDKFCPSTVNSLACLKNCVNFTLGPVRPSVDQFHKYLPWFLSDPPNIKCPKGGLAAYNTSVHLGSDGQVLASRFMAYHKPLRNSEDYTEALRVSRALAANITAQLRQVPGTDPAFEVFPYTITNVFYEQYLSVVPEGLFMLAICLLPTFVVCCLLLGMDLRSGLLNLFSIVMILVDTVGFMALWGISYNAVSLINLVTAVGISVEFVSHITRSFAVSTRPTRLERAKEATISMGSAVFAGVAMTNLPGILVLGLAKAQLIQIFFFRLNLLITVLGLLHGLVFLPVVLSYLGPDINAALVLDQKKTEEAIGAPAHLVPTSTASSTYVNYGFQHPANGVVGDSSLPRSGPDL

SMILES	IC50 [1]	Ki [1]	Ki [2]	fold weaker than AS and PS as inhibitor of [3H]AS binding ([1]; MDCK cells)
O=C1[C@H](CC[C@H](O)c2ccc(F)cc2)[C@@H](c2ccc(O)cc2)N1c1ccc(F)cc1 [EZE, Ezetimibe]	126 nM	14 ± 4.11 nM	1300 nM	–
COC(=O)[C@H]1O[C@@H](Oc2ccc([C@@H]3[C@@H](CC[C@H](O)c4ccc(F)cc4)C(=O)N3c3ccc(C#CCNS(C)(=O)=O)cc3)cc2)[C@H](O)[C@@H](O)[C@@H]1O [PS, 4-[(2S,3R)-3-[(3S)-3-(4-fluorophenyl)-3-hydroxypropyl]-1-(4-{3-[(methylsulfonyl)amino]prop-1-yn-1-yl}phenyl)-4-oxoazetidin-2-yl]phenyl methyl-β-D-glucopyranosiduronate]	3.02 nM	0.33 ± 0.05 nM	5 nM	–
O=C(O)[C@H]1O[C@@H](Oc2ccc([C@@H]3[C@@H](CC[C@H](O)c4ccc(F)cc4)C(=O)N3c3ccc(F)cc3)cc2)[C@H](O)[C@@H](O)[C@@H]1O [EZE-gluc, ezetimibe glucuronide]	24 nM	3.51 ± 0.89 nM	209 nM	~10 fold
